Measurements taken from PubChem BioAssay AID1996.
≈ marks a conversion by molar mass, not a printed value.

Settings: buffer; pH 7.4; 200.0 µM

SMILES	solubility kinetic [µg/mL]
O=C(/C=C/c1ccccc1[N+](=O)[O-])N1CCc2ccccc2C1	20.3 (≈ 65.8 µM)
NC(=O)c1ccc(CN2CCc3ccccc3C2)cc1	34.5 (≈ 130 µM)
Cc1ccc(NC(=O)Cc2ncon2)cc1Cl	> 37.8
CC(C)N(C(=O)Cn1cnc2cc([N+](=O)[O-])ccc2c1=O)C(C)C	> 49.9
Cc1ccccc1OCC(O)CN(CCO)Cc1ccccc1.Cl (stereo not given)	40.4
COc1ccc(NC(=O)CSc2ccccc2)c([N+](=O)[O-])c1	3.4 (≈ 10.7 µM)
O=C(Nc1nc2ccccc2[nH]1)c1cccc(Cl)c1	< 0.2
Cc1ccsc1CNCCc1ccccc1F	27.1 (≈ 109 µM)
COc1ccccc1Nc1nc(C)cc(C)n1	22.1 (≈ 96.4 µM)
CCOC(=O)c1c(C)nsc1NCc1ccccc1	8.5 (≈ 30.8 µM)
O=C(NCCc1ccc2c(c1)OCCO2)c1ccccn1	> 42.6
O=c1cc(O)c2sc(Nc3ccc(F)cc3)nc2[nH]1	0.3 (≈ 1.08 µM)
COc1ccc(N2CC(C(=O)NC3=NCCS3)CC2=O)cc1 (stereo not given)	> 47.9
CC(=O)c1ccc(OCC(=O)NC2CCCCCC2)cc1	> 43.4
CN(C)C(=O)c1c(NC(=O)c2ccccc2)sc2c1CCC2	42.9 (≈ 136 µM)
COCCNC(=O)c1ccc2c(c1)C(=O)c1ccccc1-2	> 42.2
Cc1ncc([N+](=O)[O-])n1CC(=O)N/N=C/c1ccccc1F	> 45.8
O=C(CCNC(=O)c1ccccc1)NNC(=O)c1ccccc1Br	> 58.5
Cc1ccccc1NS(=O)(=O)c1ccc2c(c1)oc(=O)n2C	2.3 (≈ 7.22 µM)
Cc1nn(CC(=O)NCCc2ccccc2)c(=O)c2cccn12	> 46.6
O=c1[nH]c(O)c(C=NCCc2ccccc2)c(=O)[nH]1	3.6 (≈ 13.9 µM)
CCOc1ccc2nc(NC(=O)c3ccco3)sc2c1	6.9 (≈ 23.9 µM)
COc1cc(OC)cc(C(=O)Nc2cccc3c2CCCC3)c1	< 0.7
O=C(/C=C/c1cccc(C(F)(F)F)c1)OCC(=O)N1CCN(c2ccccc2)CC1	3.7 (≈ 8.84 µM)

SMILES	solubility kinetic [µg/mL]
CC1=CC(C)(C)NC(=S)N1c1cc(C)cc(C)c1	8.7 (≈ 33.4 µM)
Cc1cccc(NC(=O)[C@@H]2CCCN2C(=O)OC(C)(C)C)c1C	39.6 (≈ 124 µM)
COc1ccc2c(c1)C(NC(C)=O)C(=O)N2CCc1ccccc1 (stereo not given)	46.6 (≈ 144 µM)
Cc1ccc(CNCCNCCO)s1.Cl	> 43.1
COc1cc(C(=O)N2CCc3ccccc32)cc(OC)c1OC	40.8 (≈ 130 µM)
COc1ccccc1CNc1ncccc1[N+](=O)[O-]	1.3 (≈ 5.01 µM)
CCOc1ncccc1C(=O)OCC(=O)NCc1cccs1	> 48.1
O=C(NC(=S)NCc1ccc(Cl)cc1)c1ccco1	10.6 (≈ 36 µM)
CC1(C)C(=S)N(Cc2ccccc2)c2ccccc21	< 0.6
COc1cc(OC)c(OC)cc1CNCc1ccco1	38.7 (≈ 140 µM)
Cc1cc(C(=O)N2CCCC(Nc3ccc(F)cc3)C2)c(C)o1 (stereo not given)	> 47.5
Cn1cccc1C(=O)OCC(=O)NCc1cccs1	> 41.7
OCCNc1c2ccccc2nc2ccccc12	33.7 (≈ 141 µM)
O=C(O)c1cccnc1	> 18.5
Cc1ccc(C)c(OCCCCN2CCCCC2)c1.O=C(O)C(=O)O	47.5
Cc1ccc(NC(=O)O/N=C/c2cccc([N+](=O)[O-])c2)cc1	9.3 (≈ 31.1 µM)
c1cc2c3c(cccc3c1)NC(c1ccc3c(c1)OCO3)N2	9.5 (≈ 32.7 µM)
CC(NS(=O)(=O)c1ccc(Cl)c(Cl)c1)C(=O)Nc1cccnc1 (stereo not given)	> 56.1
Cc1ccc(S(=O)(=O)N2CCC[C@H]2C(=O)Nc2ccccc2C)cc1	> 53.8
C=CCNc1nc2ccccc2nc1NS(=O)(=O)c1ccc(OC)cc1	45.9 (≈ 124 µM)
O=C(O)c1ccccc1NCCO	24 (≈ 132 µM)
CSc1ccc(C(=O)NCC(=O)O)cc1[N+](=O)[O-]	> 40.5
COCCCN1CN(Cc2ccco2)CNC1=S	> 40.4
O=C(COc1ccc(F)cc1F)Nc1cccnc1	36.2 (≈ 137 µM)

SMILES	solubility kinetic [µg/mL]
COc1ccc(C(=O)O/N=C(\N)Cc2ccc([N+](=O)[O-])cc2)c(OC)c1	39.3 (≈ 109 µM)
Cn1cccc1C(=O)NCc1ccc(S(N)(=O)=O)cc1	> 44
O=C(COc1ccc(/C=C\[N+](=O)[O-])cc1)N1CCOCC1	31.7 (≈ 108 µM)
CCOc1ccc(N2C(=O)CC(NCC3CCCO3)C2=O)cc1 (stereo not given)	> 47.8
Cn1c(Nc2ccc(Cl)cc2)cc(=O)n(C)c1=O	> 39.9
O=c1[nH]cnc2c1ncn2[C@@H]1C[C@@H](O)[C@H](CO)O1	> 37.8
Cc1ccc(S(=O)(=O)N(C)CC(=O)N2CCCCCC2)cc1	48.4 (≈ 149 µM)
CCc1c(C)c(C#N)c2nc3ccccc3n2c1NC	1.3 (≈ 4.92 µM)
COc1ccc(Oc2nc(-c3ccccn3)nc3ccccc23)cc1	17.6 (≈ 53.4 µM)
COc1ccc(C(=O)CC(=O)C(=O)Nc2ccc(C)c(C)c2)cc1	12.4 (≈ 38.1 µM)
Cc1cc(C)cc(NC(=O)C2CCCN2C(=O)NC2CCCCC2)c1 (stereo not given)	0.7 (≈ 2.04 µM)
O=C(Nc1cc(S(=O)(=O)N2CCOCC2)ccc1Cl)c1ccncc1	> 57.3
O=C(O)C1C2CCC(O2)C1C(=O)Nc1ccc(F)c(Cl)c1 (stereo not given)	> 47.1
O=Cc1cnc(N2CCN(Cc3ccccc3)CC2)s1	> 43.1
CCOc1ccccc1NC(=O)c1ccccc1N(C)S(=O)(=O)c1ccc(C)cc1	3.2 (≈ 7.54 µM)
COC(=O)c1ccccc1NC(=O)c1ccc2c(c1)OCCCO2	4.1 (≈ 12.5 µM)
COc1ccc(-n2c(C)cc(C(=O)CN3CCC(C)CC3)c2C)cc1	46.3 (≈ 136 µM)
CC(=O)c1ccc(Oc2ncnc(N)c2[N+](=O)[O-])cc1	2.3 (≈ 8.39 µM)
CN1CCN(CCOc2ccc(Cc3ccccc3)cc2)CC1.Cl	40.4
Cc1ccc2nc3c(c(Nc4ccccc4)c2c1)CCC3.Cl	35
CCCS(=O)(=O)Nc1cccc(-c2cn3c(n2)SCC3)c1	> 48.5
CCC(CO)N=CC1=C(O)CC(c2ccccc2)CC1=O (stereo not given)	> 43.1
C=CCN1C(=O)N(CC=C)c2cccc3cccc1c23	0.4 (≈ 1.51 µM)
COc1ccc(C(=O)NCCNc2ccc([N+](=O)[O-])cc2)cc1OC	1.7 (≈ 4.92 µM)

SMILES	solubility kinetic [µg/mL]
CC(NC(=O)c1cccc(F)c1)C1CC2CCC1C2 (stereo not given)	19.9 (≈ 76.1 µM)
CN(c1ccc([N+](=O)[O-])cc1C(N)=O)C1CCCCC1	38.3 (≈ 138 µM)
O=C(Nc1ccccc1C(=O)NC1CC1)c1ccccc1	16.7 (≈ 59.6 µM)
CC(C)(C)c1ccc(N2C(=O)CC(C/C=C/c3ccccc3)C2=O)cc1 (stereo not given)	< 0.7
CC(=O)Nc1ccc(NC(=O)COC(=O)C2CCC(C(C)(C)C)CC2)cc1 (stereo not given)	3.7 (≈ 9.88 µM)
O=C(O)C1C2CCC(C2)C1C(=O)NCCc1ccccc1 (stereo not given)	42.9 (≈ 149 µM)
Cc1ccc(OCCN2C(=O)C(=O)c3cccc(C)c32)cc1	< 0.6
Cl.O=C(NCCN1CCOCC1)c1ccccc1OCc1ccccc1	> 56.5
Cc1c(Cl)cccc1NC(=O)NCc1ccc(C)n1C	5.3 (≈ 18.2 µM)
Cc1cc(C)c(NC(=O)Nc2ccccc2)c(C)n1	34.3 (≈ 134 µM)
O=C(/C=C/c1cccs1)NC1CC1	> 29
NC1=NC(=O)C(Cc2ccc(Br)cc2)S1 (stereo not given)	36.5 (≈ 128 µM)
O=C(COc1ccccc1Cl)NCCCNC(=O)c1ccccn1	> 52.2
Br.CCCCCCCCCCn1ccc(=N)cc1	> 47.3
COC(=O)C1CCN(C(=O)COC(=O)c2cc(S(=O)(=O)N3CCOCC3)ccc2C)CC1	> 70.3
Cc1cc(Br)c(NC(=O)COC(=O)c2ccc[n+]([O-])c2)c(Br)c1	> 66.6
Cc1ncc([N+](=O)[O-])n1CC(=O)Nc1cc(Cl)ccc1Cl	0.9 (≈ 2.73 µM)
CCCCSc1nc2sc3c(c2c(=O)[nH]1)CC(C)(CC)OC3 (stereo not given)	0.5 (≈ 1.48 µM)
CC(C)NC(=O)c1ccccc1NC(=O)C1CC(=O)N(C(C)C)C1 (stereo not given)	> 49.7
Cc1[nH]c2ccccc2c1C(=O)C(=O)NCCCn1ccnc1	> 46.6
O=C(CN1C(=O)NC(Cc2c[nH]c3ccccc23)C1=O)Nc1ccc(F)cc1F (stereo not given)	19 (≈ 47.7 µM)
O=C(O)CSC(=S)N1CCCC1	26.7 (≈ 130 µM)
CC1=CC(C)(C)N2C(=O)C(=Nc3ccc(O)cc3)c3cccc1c32	9.4 (≈ 29.5 µM)
Cc1ccc2nc(CCl)[n+]([O-])c(-c3ccccc3)c2c1	27.8 (≈ 97.6 µM)

SMILES	solubility kinetic [µg/mL]
CCn1c(-c2ccc[nH]c2=O)nc2ccccc21	> 35.9
Cc1cccc(C)c1NC(=O)c1ccc(N2CCCC2=O)cc1	> 46.3
CCNC(=S)Nc1ccc(OC(F)(F)F)cc1	> 39.6
COC(=O)C1CCN(C(=O)COC(=O)c2ccc(N3CCCC3=O)cc2)CC1	> 58.3
COc1ccc(/C(N)=N/OC(=O)c2cccc([N+](=O)[O-])c2C)cc1	1.1 (≈ 3.34 µM)
O=C(CNC(=O)Cc1ccc(Cl)cc1)NCc1ccco1	26.4 (≈ 86.1 µM)
O=C(Nc1nc2ccccc2s1)NC1CCCCC1	1.6 (≈ 5.81 µM)
CCC(=NCC1CCCO1)c1c(O)n(-c2ccccc2C)c(=O)[nH]c1=O (stereo not given)	> 53.6
CNC(=S)N1CCN(c2nc(-c3ccc(F)cc3)cs2)CC1	2.5 (≈ 7.43 µM)
COC(=O)C1CCN(C(=O)COc2ccc(S(=O)(=O)N3CCOCC3)cc2Cl)CC1	> 69.1
Nc1cccc(/C=C/C(=O)O)c1	> 24.5
Cc1cc(NC(=O)/C=C\C(=O)O)c([N+](=O)[O-])cc1C	39.4 (≈ 149 µM)
CN(Cc1ccccn1)Cc1nc(COc2ccccc2)no1	45.7 (≈ 147 µM)
Cc1ccc(S(=O)(=O)NC2=NCN(C)CN2)cc1[N+](=O)[O-]	> 47
Cc1ccccc1OCCn1ccnc1	24.5 (≈ 121 µM)
Cc1ccccc1N=C1NC(=O)/C(=C/c2cccn2C)S1	3.3 (≈ 11.1 µM)
COc1ccc(-c2cc3ccccc3nc2N)cc1OC	3 (≈ 10.7 µM)
CCCNC(=O)CN(C)CC(=O)Nc1ccccc1C#N	> 43.3
NS(=O)(=O)c1ccc(NC(=O)Nc2ccccc2)cc1	42.8 (≈ 147 µM)
COC(=O)c1sc(NC(=O)/C=C/c2ccccc2Cl)nc1C	1.5 (≈ 4.45 µM)
CCc1nc2ccccc2c(C(=O)Nc2cccc(C)c2)c1C	2.2 (≈ 7.23 µM)
CNC(=O)c1cc2c(cn1)[nH]c1ccccc12	27.5 (≈ 122 µM)
Cc1ccc(S(=O)(=O)NCc2ccccc2)cc1C(=O)NCc1ccccn1	48.1 (≈ 122 µM)
CCn1c(=O)n(CC)c2cc([N+](=O)[O-])c(N3CCNCC3)cc21	> 47.9
